{"source": "ChEMBL document CHEMBL1134933", "about": "“Hydroxamate based inhibitors of adenylyl cyclase. Part 2: the effect of cyclic linkers on P-site binding” (Bioorg Med Chem Lett, 2002)", "data": [{"molecular_target": "Adenylate cyclase type 5 (Homo sapiens, UniProt O95622)", "sequence (O95622 whole entry)": "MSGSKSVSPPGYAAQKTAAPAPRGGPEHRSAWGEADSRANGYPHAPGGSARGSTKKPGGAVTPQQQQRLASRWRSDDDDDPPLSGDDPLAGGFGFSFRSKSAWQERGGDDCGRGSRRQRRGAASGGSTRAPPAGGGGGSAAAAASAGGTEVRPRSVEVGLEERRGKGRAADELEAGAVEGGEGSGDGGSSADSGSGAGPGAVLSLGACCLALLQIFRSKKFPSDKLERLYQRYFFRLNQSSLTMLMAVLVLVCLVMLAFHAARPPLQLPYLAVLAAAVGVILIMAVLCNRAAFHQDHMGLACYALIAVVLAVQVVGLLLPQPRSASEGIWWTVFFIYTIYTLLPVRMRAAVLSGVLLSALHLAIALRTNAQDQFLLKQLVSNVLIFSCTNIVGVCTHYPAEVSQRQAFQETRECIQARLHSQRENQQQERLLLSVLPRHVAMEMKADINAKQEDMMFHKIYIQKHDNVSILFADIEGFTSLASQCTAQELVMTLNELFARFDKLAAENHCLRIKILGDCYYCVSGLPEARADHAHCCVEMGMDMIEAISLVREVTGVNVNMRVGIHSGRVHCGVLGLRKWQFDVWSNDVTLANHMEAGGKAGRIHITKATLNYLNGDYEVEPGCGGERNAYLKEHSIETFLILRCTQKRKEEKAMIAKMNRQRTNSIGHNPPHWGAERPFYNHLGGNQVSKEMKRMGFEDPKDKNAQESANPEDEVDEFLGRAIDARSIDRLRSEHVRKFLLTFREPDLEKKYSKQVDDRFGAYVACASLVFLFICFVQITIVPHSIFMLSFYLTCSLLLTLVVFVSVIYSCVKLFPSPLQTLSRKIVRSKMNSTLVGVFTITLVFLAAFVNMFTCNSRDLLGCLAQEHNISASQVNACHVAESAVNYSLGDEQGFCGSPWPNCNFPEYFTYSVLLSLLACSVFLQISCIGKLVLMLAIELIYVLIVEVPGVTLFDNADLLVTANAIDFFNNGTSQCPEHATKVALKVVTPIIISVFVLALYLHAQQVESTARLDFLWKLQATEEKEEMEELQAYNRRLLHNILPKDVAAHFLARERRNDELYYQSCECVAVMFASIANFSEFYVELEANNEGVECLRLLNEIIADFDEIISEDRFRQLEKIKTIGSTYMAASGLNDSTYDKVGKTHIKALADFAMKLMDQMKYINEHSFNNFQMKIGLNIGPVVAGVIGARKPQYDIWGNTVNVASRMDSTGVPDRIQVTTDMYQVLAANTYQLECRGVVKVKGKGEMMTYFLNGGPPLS", "assay": "Inhibitory concentration against Type V Adenyl Cyclase enzyme", "units": {"IC50": "µM"}, "values": [{"smiles": "Nc1ncnc2c1ncn2[C@@H]1CC[C@@H](OCC(=O)O)C1", "IC50": "> 200"}, {"smiles": "Nc1ncnc2c1ncn2[C@H]1CC[C@@H](OCC(=O)O)C1", "IC50": "> 200"}, {"smiles": "Nc1ncnc2c1ncn2[C@H]1C=C[C@@H](OCC(=O)O)C1", "IC50": 78}, {"smiles": "Nc1ncnc2c1ncn2[C@@H]1C=C[C@H](OCC(=O)O)C1", "IC50": 98}, {"smiles": "Nc1ncnc2c1ncn2[C@@H]1CC[C@H](OCC(=O)O)C1", "IC50": 79}, {"smiles": "Nc1ncnc2c1ncn2[C@@H]1C=C[C@@H](OCC(=O)O)C1", "IC50": 72}, {"smiles": "Nc1ncnc2c1ncn2[C@H]1CC[C@H](OCC(=O)O)C1", "IC50": "> 200"}, {"smiles": "Nc1ncnc2c1ncn2[C@H]1C=C[C@H](OCC(=O)O)C1", "IC50": "> 200"}, {"smiles": "Nc1ncnc2c1ncn2[C@@H]1C=C[C@H](OCC(=O)NO)C1", "note": "(stereo in doubt; 5a)", "IC50": 102}, {"smiles": "Nc1ncnc2c1ncn2[C@H]1C=C[C@@H](OCC(=O)NO)C1", "note": "(stereo in doubt; 5b)", "IC50": 13.6}, {"smiles": "Nc1ncnc2c1ncn2[C@H]1C=C[C@@H](OCC(=O)NO)C1", "note": "(stereo in doubt; 5c)", "IC50": 116}, {"smiles": "Nc1ncnc2c1ncn2[C@@H]1C=C[C@H](OCC(=O)NO)C1", "note": "(stereo in doubt; 5d)", "IC50": 96}, {"smiles": "Nc1ncnc2c1ncn2[C@H]1CC[C@@H](OCC(=O)NO)C1", "note": "(stereo in doubt; 8a)", "IC50": 110}, {"smiles": "Nc1ncnc2c1ncn2[C@@H]1CC[C@H](OCC(=O)NO)C1", "note": "(stereo in doubt; 8b)", "IC50": 10.8}, {"smiles": "Nc1ncnc2c1ncn2[C@H]1CC[C@@H](OCC(=O)NO)C1", "note": "(stereo in doubt; 8c)", "IC50": "> 200"}, {"smiles": "Nc1ncnc2c1ncn2[C@@H]1CC[C@H](OCC(=O)NO)C1", "note": "(stereo in doubt; 8d)", "IC50": 109}]}]}
